Laboratory results from publication PMC3527734, “Peripheral injections of melanin-concentrating hormone receptor 1 antagonist S38151 decrease food intake and body weight in rodent obesity models” (Frontiers in Endocrinology, 2012).
Where no end group is shown, it is not given here.

Columns and labels:
Zucker fa/fa rats [1] = settings: cyclophosphamide 100 mg/kg i.p., S38151 20 nmol/kg (28 μg/kg) i.c.v., n = 8
Method: These experiments were performed with modifications to previously described methods (Madden et al., [1999]). Rats were individually housed in wire-bottomed plastic cages with free access to both food pellets (6 mm diameter A03 UAR) and kaolin powder. The food pellets were presented in a small porcelain bowl on the floor of the cage. The kaolin powder was presented in a metal feeding dish attached to the inside of the cage. After a 2-week habituation period to these conditions, the animals were randomized into five treatment groups based on the quantity of food eaten during the stabilization period. In addition, those rats that consistently spilled the kaolin powder were eliminated from the study. One day after randomization, the animals were injected just before the beginning of the dark phase with either cyclophosphamide (100 mg/kg, i.p.), or S38151 [20 nmol/kg (28 μg/kg) i.c.v.] or vehicle [(artificial CSF) i.c.v.]. After injection, the quantity of kaolin and food ingested during the following 24-h period was determined. Food or kaolin spilled by the animals was collected at the end of the experiment, and total food and kaolin intake measurements were corrected for this loss.
Figure 5 The effects of S38151 on conditioned taste aversion and pica in Zucker fa/fa rats. (A) In the conditioned taste aversion test, after a period of habituation of the animals to the experimental protocol, Zucker fa/fa rats were presented with 0.2% saccharine for 20 min after drinking water was removed from their cages for 18 h (test day 0). Animals were then injected (i.p.) with vehicle or lithium chloride, or with S38151 (20 nmol/kg, i.c.v). On test days 4, 7, 11, and 14, rats were presented with 0.2% saccharine, and the quantity consumed during a 20-min period was determined. Results are expressed as mean ± SEM (n = 10–11 rats per group). […] (B) In the pica test, Zucker fa/fa rats were injected (i.c.v.) with 20 nmol/kg S38151, or an equivalent volume of artificial cerebrospinal fluid vehicle. Food and kaolin intake during the following 24-h period were each measured. Results are expressed as mean ± SEM (n = 8 rats per group).

Zucker fa/fa rats [2] = assay: conditioned taste aversion; format: in vivo, rat; settings: test days 4, 7, 11, 14 versus control; lithium chloride 75 mg/kg i.p.; S38151 20 nmol/kg i.c.v.; n = 10-11
C57BL/6J mice = assay: daily i.c.v. MCH, food intake and body weight in lean mice; format: in vivo, mouse; settings: n = 10
Method: (§1) For the MCH daily repeated i.c.v. injection studies, 13-week-old female C57BL/6J and ob/ob mice were used (Harlan, Gannat, France).
(§2) Figure 7 The effect of repeated daily central administration of MCH to lean (C57BL/6J) and obese (ob/ob) mice. C57BL/6J (A and B) and ob/ob (C and D) mice were administered MCH (5 μg/mouse/day) or artificial cerebrospinal fluid vehicle through i.c.v. injections for 5 consecutive days. Results are expressed as mean ± SEM (n = 10 mice per group). […] TEXT PRINTED IN THE PICTURE: (A) MCH: Food Intake/24h (g), C57BL/6J: Δ = 1.3 g | (B) MCH: Δ Body Weight (g), C57BL/6J: Δ = 1.3 g | (C) MCH: Food Intake/24h (g), ob/ob: Δ = 3.2 g | (D) MCH: Δ Body Weight (g), ob/ob: Δ = 2.1 g DOUBTS OF THE COPYIST ABOUT THIS PICTURE: The Δ values are printed beside the curve pairs with no substance label; I assigned them to MCH, reading them as the MCH versus Control difference.

ob/ob mice = assay: daily i.c.v. MCH, food intake and body weight in obese mice; format: in vivo; settings: MCH 5 μg/mouse/day i.c.v. for 5 days, n = 10
Method: as §1, §2

Wistar rats = assay: NEI-MCH-induced food intake after acute i.c.v. injection; format: in vivo, rat; settings: NEI-MCH alone or any combination of NEI-MCH and S38151, i.c.v.
Source text: Wistar and Zucker fa/fa rats were anesthetized with Forène (Abbott Laboratories, Queenborough, UK), and a stainless steel guide cannula (Plastic Products Co, Roanoke, Va, USA) was stereotaxically implanted into the right lateral ventricle at the following coordinates relative to the bregma: AP −0.8 mm, L = −1.2 mm, and V = −3.5 mm. After a 7-day recovery period, during which the animals were handled each day to minimize non-specific stress, they were lightly anesthetized with Forène. Human/mouse/rat MCH (1 μg in a volume of 2.5 μ L, Bachem, Voisins-le-Bretonneux, France) or an equivalent volume of artificial cerebrospinal fluid (CSF) was then injected through the intraventricular cannula. Immediately after injection, the animals quickly recovered and were returned to their home cages. Only those animals responding within 2 h with a robust increase in food intake, indicating correct cannula placement, were used in the experiments described below. Two days after MCH injection, the rats were randomly assigned to different groups and studied in one of the following protocols.
Wistar rats were habituated for at least 2 weeks before experiment to a diet of food pellets (6 mm diameter) of the following composition: 67.5% food flour, 26.5% sucrose, 5% gum tragacanth, and 1.25% magnesium stearate (A03 UAR, Orge, France). The food pellets were present in a metal food hopper attached to the inside of each cage. At 09:00 on the day of study, the animals were lightly anesthetized with Forene® (Abbott, France). Thereafter, rats were injected intra-cerebroventricular (i.c.v.) with vehicle (artificial CSF) or with S38151 [0.5, 5, 10, 20, 30, or 50 nmol/kg ([…], 14, 28, 42, or 70 μg/kg, respectively)] in a volume of 2.5 μL, 20 min prior to the injection of human/rat NEI-MCH [5 nmol/kg (18.7 μg/kg) in a volume of 2.5 μL].
Food intake was measured at different times after peptide injection. Food spillage was carefully quantified during each time period, and intake measurements were corrected for this loss. At the end of the experiments, the animals were euthanized and the positions of the cannulae were assessed by the injection of 100 μ L Evans blue dye (2 mg/mL) followed by the visual examination of brain slices. Only data obtained from animals with correctly positioned cannulae were included in the final data analysis.
Figure 3 The effect of S38151 on NEI-MCH-induced food intake in Wistar rats after acute central administration. Satiated rats were injected (i.c.v.) at the beginning of the light phase with 5 μg NEI-MCH, 5 μg NEI-MCH + differing doses of S38151 (0.5–50 nmol/kg), or an equivalent volume of artificial cereblospinal fluid vehicle (5 μL). Cumulative food intake was measured at 1, 2, 4, 6, and 24 h post-injection.

Compound: O=P1(N(CCCl)CCCl)NCCCO1 (centres unmarked) [Cyclophosphamide, cyclophosphamide, reference compound]
- kaolin intake, 24 h, pica test (Zucker fa/fa rats [1]; vehicle 0.05 ± 0.01 g): significant increase
- food intake, 24 h, pica test (Zucker fa/fa rats [1]; vehicle 27 ± 1 g): nearly complete suppression

Compound: [Cl-].[Li+] [lithium chloride, reference compound]
- 0.2% saccharine consumption (Zucker fa/fa rats [2]): significant reduction

Compound: Melanin-concentrating hormone [MCH]
- Δ food intake vs. controls, day 5 (C57BL/6J mice; MCH 5 μg/mouse/day (100 nmol/kg/day) i.c.v. for 5 days): +1.3 g
- Δ body weight vs. controls, day 5 (C57BL/6J mice; MCH 5 μg/mouse/day i.c.v. for 5 days): +1.3 g
- Δ body weight vs. controls, after 5 days (ob/ob mice): +2.1 g
- Δ food intake vs. controls, day 5 (ob/ob mice): +3.2 g

Compound: NEI-MCH: stable precursor of melanin-concentrating hormone, human/rat NEI-MCH (EIGDEENSAKFPIGRRDFDMLRCMLGRVYRPCWQV; ends and bridges not checked; cysteine pairing not given here; UniProt P20382 131-165, looked up, fragment) [reference compound]
- food intake during the entire 24-h period versus control group (Wistar rats): not significantly altered
